# Laboratory results as given in patent US7138428B2, “Compounds isolated from gamboge resin having activity in inhibiting the growth of tumor/cancer cells and pharmaceutical compositions comprising the same” (Taiwan Sunpan Biotechnology Development Company, Ltd., priority 2004, dated 2006).
# Legend:
# [1] = system: U937 (lymphoma cancer); assay: cells; settings: for IC50 (50% cell growth inhibition concentration) / LC50 (50% cell destroying lethal concentration): U937
# Text: (§1) The cancer cell growth inhibition test was primarily used to detect the effect of a candidate drug on cancer cell proliferation. The working principle involved therein is the ability of viable cells to shift alamarBlue (Biosource, USA) from its originally non-fluorescent oxidized state to a reduced form (fluorescent, red) having fluorescence via metabolic reaction. According to the fluorescent data result generated by the alamarBlue reagent thus obtained, the proliferation of the viable cells and cell activity can be quantified for detection.
# (§2) In this experiment, the assay concentrations of the candidate drug were set to be 0.01, 0.1, 1, 10, and 100 μg/ml, and the following cell lines were used: 6 human cancer cells MCF-7 (breast cancer), HT-29 (colon cancer), HL-60 (leukemia), HepG2 (liver cancer), A549 (lung cancer), and U937 (lymphoma cancer), and a normal human umbilical venal epithelial cell (HUVEC).
# (§3) In order to further understand the bioactivity of the products TSB-0 to TSB-8 of this invention when they are used in combination, mixture formulations TSB-9, TSB-10, TSB-11, TSB-12 and TSB-13 were prepared according to Table 4 below.
# [2] = system: MCF-7 (breast cancer); assay: cells; settings: for IC50 (50% cell growth inhibition concentration) / LC50 (50% cell destroying lethal concentration): MCF-7
# Text: as §1, §2, §3
# [3] = system: HL-60 (leukemia); assay: cells; settings: for IC50 (50% cell growth inhibition concentration) / LC50 (50% cell destroying lethal concentration): HL-60
# Text: as §1, §2, §3
# [4] = system: HT-29 (colon cancer); assay: cells; settings: for IC50 (50% cell growth inhibition concentration) / LC50 (50% cell destroying lethal concentration): HT-29
# Text: as §1, §2, §3
# [5] = system: HepG2 (liver cancer); assay: cells; settings: for IC50 (50% cell growth inhibition concentration) / LC50 (50% cell destroying lethal concentration): HepG2
# Text: as §1, §2, §3
# [6] = system: A549 (lung cancer); assay: cells; settings: for IC50 (50% cell growth inhibition concentration) / LC50 (50% cell destroying lethal concentration): A549
# Text: as §1, §2, §3
# [7] = system: normal human umbilical venal epithelial cell (HUVEC)
# Text: as §1, §2, §3
# [8] = body weights of tumor-bearing test animals; format: in vivo, mice; settings: 2 mg/kg × 5
# Protocol: Mixture formulation TSB-9 was further subjected to an animal test, in which female mice (6–8 weeks old, weighing 20–22 grams) originally from C.B-17/Icr background and having Severe Combined Immune Deficiency (SCID) were used.
# Human breast cancer cells MCF-7 (ATCC HTB-22) (1×10^7 cells/0.2 ml) were implanted subcutaneously into the dorsal side of the mice, and 50 μg/mouse of estradiol benzoate (Sigma, USA) was injected subcutaneously into the mice weekly as supplement for a total of 4 weeks. When the tumor growth reached ≧5 mm in diameter (that very day was denoted as day 1), tumor-bearing nude mice were randomly divided into 4 groups (6 mice in each group).
# Mixture formulation TSB-9 was dissolved in 10% DMSO, and was administered orally to the mice every day at two dosages 40 mg/kg and 80 mg/kg, respectively, for a total of 21 consecutive days. […] This treatment group served as a positive control.
# Measurements were taken once every 4 days during the experiment periods, and were recorded.
# [9] = system: tumor/cancer cells; assay: in vitro anti-cancer tests, overall statements; format: cell-based, human; settings: summary of in vitro results
Compound,LC50 (50% cell destroying lethal concentration) [7] [mg/L],IC50 (50% cell growth inhibition concentration) [1] [mg/L],LC50 (50% cell destroying lethal concentration) [1] [mg/L],IC50 (50% cell growth inhibition concentration) [2] [mg/L],LC50 (50% cell destroying lethal concentration) [2] [mg/L],IC50 (50% cell growth inhibition concentration) [3] [mg/L],LC50 (50% cell destroying lethal concentration) [3] [mg/L],IC50 (50% cell growth inhibition concentration) [4] [mg/L],LC50 (50% cell destroying lethal concentration) [4] [mg/L],IC50 (50% cell growth inhibition concentration) [5] [mg/L],LC50 (50% cell destroying lethal concentration) [5] [mg/L],IC50 (50% cell growth inhibition concentration) [6] [mg/L],LC50 (50% cell destroying lethal concentration) [6] [mg/L],IC50 (50% cell growth inhibition concentration) [7] [mg/L],also measured
"CC(C)=CCc1c(O)cc(O)c2c(=O)c3cc4c(c(O)c3oc12)OC(C)(C)C=C4 [TSB-4, 7,9,12-trihydroxy-2,2-dimethyl-10-(3-methyl-but-2-enyl)-2H-pyrano[3,2-b]xanthen-6-one]",21,,,,,,,,,,,,,,"CC50 ([1]; Homo sapiens, U-937, read-out: LC50 (50% cell destroying lethal concentration)): 28 mg/L; CC50 ([2]; Homo sapiens, MCF7, read-out: LC50 (50% cell destroying lethal concentration)): 40 mg/L; CC50 ([3]; Homo sapiens, HL-60, read-out: LC50 (50% cell destroying lethal concentration)): 42 mg/L; CC50 ([4]; Homo sapiens, HT-29, read-out: LC50 (50% cell destroying lethal concentration)): 59 mg/L; CC50 ([5]; Homo sapiens, HepG2, read-out: LC50 (50% cell destroying lethal concentration)): 24 mg/L; CC50 ([6]; Homo sapiens, A549, read-out: LC50 (50% cell destroying lethal concentration)): 21 mg/L"
CO[C@@]12[C@H](COC(N)=O)C3=C(C(=O)C(C)=C(N)C3=O)N1C[C@@H]1N[C@@H]12 [mitomycin],,,,,,,,,,,,,,,Weight (g) (mean ± SEM) ([8]; Day 1): 22.5 ± 0.6 g; Weight (g) (mean ± SEM) ([8]; Day 5): 20.8 ± 0.3 g; Weight (g) (mean ± SEM) ([8]; Day 9): 19.3 ± 0.4 g; Weight (g) (mean ± SEM) ([8]; Day 13): 19.2 ± 0.3 g; Weight (g) (mean ± SEM) ([8]; Day 17): 18.5 ± 0.2 g; Weight (g) (mean ± SEM) ([8]; Day 21): 17.5 ± 0.2 g; Weight (g) (mean ± SEM) ([8]; Day 25): 16.7 ± 0.2 g; Weight (g) (mean ± SEM) ([8]; Day 29): 16.7 ± 0.4 g
"CC(C)=CCc1c2c(c(O)c3c1O[C@@]14C(=C[C@H]5CC1C(C)(C)O[C@]4(CC=C(C)C)C5=O)C3=O)C=CC(C)(C)O2 [TSB-8, desoxymorellin]",40,6.2,>100,5.3,83,6.5,>100,6.7,69,3.9,31,4.8,56,2.8,
"CC(C)=CCC[C@]1(C)C=Cc2c(O)c3c(c(CC=C(C)C)c2O1)O[C@]12C(=C[C@@H]4C[C@H]1C(C)(C)O[C@@]2(C/C=C(\C)C(=O)O)C4=O)C3=O [TSB-3, isogambogic acid]",5.2,0.82,3.1,1.6,4.3,0.97,4.6,6.4,8.8,1.2,1.9,0.88,4.8,1.1,
"CC(C)=CCC[C@]1(C)C=Cc2c(O)c3c(c(CC=C(C)C)c2O1)O[C@]12C(=C[C@@H]4C[C@H]1C(C)(C)O[C@@]2(C/C=C(/C)C(=O)O)C4=O)C3=O [TSB-5, gambogic acid]",3.6,0.65,3.1,0.83,2.7,0.50,5.2,4.5,7.1,0.83,2.7,0.8,2.9,0.87,
"CC(C)=CCc1c2c(c(O)c3c1OC14C(=CC5CC1C(C)(C)OC4(C/C=C(\C)CO)C5=O)C3=O)C=CC(C)(C)O2 (centres unmarked) [TSB-6, isomorellinol]",9.3,1.3,3.8,0.90,5.8,1.4,6.2,5.2,8.5,1.2,3.0,2.0,9.6,1.5,
"CC(C)=CCc1c2c(c(O)c3c1OC14C(=CC5CC1C(C)(C)OC4(C/C=C(\C)C(=O)O)C5=O)C3=O)C=CC(C)(C)O2 (centres unmarked) [TSB-2, isomorellic acid]",22,1.6,6.1,9.0,24,2.3,43,6.9,12,6.4,33,1.3,4.6,1.7,
"C=C(C)[C@@H]1CC[C@]2(C(=O)O)CC[C@]3(C)[C@H](CC[C@@H]4[C@@]5(C)CC[C@H](O)C(C)(C)[C@@H]5CC[C@]43C)[C@@H]12 [TSB-1, betulinic acid]",,,,,,,,,,,,,,,effect of inhibiting tumor/cancer cell growth (in words) [9]: may not be as effective as products TSB-2 to TSB-8
"C=C(C)[C@@H]1CC[C@]2(CO)CC[C@]3(C)[C@H](CC[C@@H]4[C@@]5(C)CC[C@H](O)C(C)(C)[C@@H]5CC[C@]43C)[C@@H]12 [TSB-0, betulin]",,,,,,,,,,,,,,,effect of inhibiting tumor/cancer cell growth (in words) [9]: may not be as effective as products TSB-2 to TSB-8
"CC(C)=CCc1c2c(c(O)c3c1O[C@]14C(=C[C@@H]5C[C@H]1C(C)(C)O[C@@]4(C/C=C(/C)C(=O)O)C5=O)C3=O)C=CC(C)(C)O2 [TSB-7, morellic acid]",4.8,1.6,4.8,0.98,6.2,1.2,5.6,2.8,7.2,1.7,3.9,0.76,3.4,0.88,
